Laboratory results from the NIST ThermoML archive (doi:10.1016/j.jct.2014.07.018).

Experiment: molar heat capacity at constant pressure
Conditions: 101.33 kPa, Vacuum adiabatic calorimetry

CCCCn1cc[n+](C)c1.[I-] [1-butyl-3-methylimidazolium iodide]
Conditions | molar heat capacity at constant pressure [J/K/mol]
168.81 K, Crystal | 158.7
169.51 K, Crystal | 159.1
170 K, Crystal | 159.4
170 K, Glass | 172.3
170.6 K, Glass | 172.7
170.88 K, Crystal | 159.9
171.57 K, Crystal | 160.3
172.61 K, Glass | 174
172.94 K, Crystal | 161.1
173.64 K, Crystal | 161.5
174.62 K, Glass | 175.4
175.01 K, Crystal | 162.3
175.71 K, Crystal | 162.7
176.63 K, Glass | 176.8
177.07 K, Crystal | 163.5
177.77 K, Crystal | 163.9
178.63 K, Glass | 178.2
179.14 K, Crystal | 164.8
179.83 K, Crystal | 165.2
180 K, Crystal | 165.3
180 K, Glass | 179.1
180.64 K, Glass | 179.6
181.2 K, Crystal | 166.1
181.89 K, Crystal | 166.6
182.64 K, Glass | 181
183.26 K, Crystal | 167.6
183.95 K, Crystal | 168.1
184.64 K, Glass | 182.6
185.31 K, Crystal | 169.1
186 K, Crystal | 169.6
186.65 K, Glass | 184.1
187.36 K, Crystal | 170.6
188.05 K, Crystal | 171.1
188.65 K, Glass | 185.7
189.41 K, Crystal | 171.9
190 K, Crystal | 172.3
190 K, Glass | 186.7
190.1 K, Crystal | 172.4
190.65 K, Glass | 187.2
191.46 K, Crystal | 173.3
192.15 K, Crystal | 173.7
192.65 K, Glass | 188.9
193.51 K, Crystal | 174.5
194.2 K, Crystal | 174.9
194.65 K, Glass | 191
195.56 K, Crystal | 175.7
196.24 K, Crystal | 176.1
196.66 K, Glass | 193
197.6 K, Crystal | 176.9
198.29 K, Crystal | 177.3
198.66 K, Glass | 195.4
199.65 K, Crystal | 178.1
200 K, Crystal | 178.3
200 K, Glass | 197.5
200.33 K, Crystal | 178.5
200.66 K, Glass | 198.5
201.69 K, Crystal | 179.3
202.37 K, Crystal | 179.8
202.93 K, Glass | 204.1
203.73 K, Crystal | 180.5
204.41 K, Crystal | 180.9
205.45 K, Glass | 214.4
205.77 K, Crystal | 181.8
206.45 K, Crystal | 182.2
207.77 K, Liquid | 247.8
207.8 K, Crystal | 183
208.48 K, Crystal | 183.4
209.84 K, Crystal | 184.3
209.86 K, Liquid | 287.7
210 K, Crystal | 184.3
210 K, Liquid | 287.6
210.52 K, Crystal | 184.6
211.87 K, Crystal | 185.5
212.03 K, Liquid | 285.8
212.55 K, Crystal | 185.9
213.91 K, Crystal | 186.8
214.19 K, Liquid | 286.4
214.58 K, Crystal | 187.2
215.94 K, Crystal | 188.1
216.37 K, Liquid | 286.6
216.61 K, Crystal | 188.6
217.97 K, Crystal | 189.5
218.54 K, Liquid | 287.1
218.63 K, Crystal | 190.1
219.99 K, Crystal | 191
220 K, Crystal | 191
220 K, Liquid | 287.3
220.66 K, Crystal | 191.6
220.72 K, Liquid | 287.4
222.01 K, Crystal | 192.5
222.11 K, Liquid | 287.7
222.67 K, Crystal | 193
222.9 K, Liquid | 287.9
224.03 K, Crystal | 194
224.39 K, Liquid | 288.2
224.69 K, Crystal | 194.5
225.09 K, Liquid | 288.5
226.04 K, Crystal | 195.5
226.56 K, Liquid | 288.5
226.7 K, Crystal | 196
226.71 K, Liquid | 288.5
227.28 K, Liquid | 288.7
227.61 K, Crystal | 196.7
228.05 K, Crystal | 197.1
228.71 K, Crystal | 197.5
228.74 K, Liquid | 289
228.79 K, Liquid | 289
229.47 K, Liquid | 289.3
229.61 K, Crystal | 198.3
230 K, Crystal | 198.5
230 K, Liquid | 289.4
230.06 K, Crystal | 198.5
230.71 K, Crystal | 198.9
230.77 K, Liquid | 289.5
230.93 K, Liquid | 289.5
231.61 K, Crystal | 199.7
231.66 K, Liquid | 289.8
232.06 K, Crystal | 200
232.71 K, Crystal | 200.6
232.76 K, Liquid | 289.8
233.11 K, Liquid | 290.1
233.61 K, Crystal | 201.3
233.72 K, Liquid | 290.1
233.86 K, Liquid | 290.3
234.06 K, Crystal | 201.7
234.71 K, Crystal | 202
234.74 K, Liquid | 290.3
235.3 K, Liquid | 290.6
235.61 K, Crystal | 202.8
235.72 K, Liquid | 290.6
236.05 K, Crystal | 203.2
236.05 K, Liquid | 290.9
236.7 K, Crystal | 203.6
236.72 K, Liquid | 290.9
237.48 K, Liquid | 291.1
237.6 K, Crystal | 204.3
237.71 K, Liquid | 291.1
238.04 K, Crystal | 204.8
238.25 K, Liquid | 291.4
238.69 K, Crystal | 205.3
238.71 K, Liquid | 291.4
239.6 K, Crystal | 205.9
239.67 K, Liquid | 291.7
239.7 K, Liquid | 291.7
240 K, Crystal | 206.3
240 K, Liquid | 291.7
240.03 K, Crystal | 206.3
240.46 K, Liquid | 291.9
240.67 K, Crystal | 206.7
240.69 K, Liquid | 291.9
241.59 K, Crystal | 207.5
241.7 K, Liquid | 292.2
241.85 K, Liquid | 292.2
242.01 K, Crystal | 208
242.65 K, Crystal | 208.4
242.68 K, Liquid | 292.5
243.58 K, Crystal | 209.1
243.69 K, Liquid | 292.7
243.99 K, Crystal | 209.6
244.04 K, Liquid | 292.7
244.63 K, Crystal | 210
244.67 K, Liquid | 293
245.57 K, Crystal | 210.8
245.96 K, Crystal | 211.2
246.6 K, Crystal | 211.6
247.55 K, Crystal | 212.5
247.93 K, Crystal | 212.9
248.56 K, Crystal | 213.4
249.54 K, Crystal | 214.3
249.7 K, Liquid | 294.3
250 K, Crystal | 214.6
250 K, Liquid | 294.4
250.52 K, Crystal | 215.1
251.69 K, Liquid | 294.9
252.54 K, Crystal | 217.2
253.58 K, Liquid | 295.4
254.59 K, Crystal | 219.4
255.48 K, Liquid | 295.9
256.64 K, Crystal | 221.7
257.37 K, Liquid | 296.5
258.69 K, Crystal | 224.2
259.26 K, Liquid | 297.3
260 K, Crystal | 223.4
260 K, Liquid | 297.4
260.73 K, Crystal | 227
261.15 K, Liquid | 297.8
262.75 K, Crystal | 230.3
263.05 K, Liquid | 298.3
264.77 K, Crystal | 234
264.94 K, Liquid | 298.9
266.78 K, Crystal | 238.1
266.84 K, Liquid | 299.7
267.43 K, Liquid | 299.7
268.74 K, Liquid | 300.2
268.77 K, Crystal | 243.1
269.42 K, Liquid | 300.5
270 K, Crystal | 232.6
270 K, Liquid | 300.6
270.64 K, Liquid | 300.7
270.74 K, Crystal | 249
271.32 K, Liquid | 301
272.7 K, Crystal | 256.2
273.22 K, Liquid | 301.5
274.63 K, Crystal | 266.1
275.12 K, Liquid | 302.3
276.52 K, Crystal | 280.2
277.02 K, Liquid | 302.9
278.36 K, Crystal | 295.7
278.92 K, Liquid | 303.4
280 K, Crystal | 242.3
280 K, Liquid | 303.8
280.15 K, Crystal | 317.2
280.82 K, Liquid | 303.9
281.86 K, Crystal | 349.7
282.72 K, Liquid | 304.7
283.46 K, Crystal | 398.1
284.62 K, Liquid | 305.2
284.92 K, Crystal | 473.4
286.2 K, Crystal | 587.3
286.52 K, Liquid | 306
287.29 K, Crystal | 773.4
288.17 K, Crystal | 1041
288.42 K, Liquid | 306.6
288.86 K, Crystal | 1421
289.4 K, Crystal | 1917
290 K, Crystal | 252.5
290 K, Liquid | 307.1
290.32 K, Liquid | 307.1
291.92 K, Crystal | 254.5
291.92 K, Liquid | 307.8
292.23 K, Liquid | 307.9
293.86 K, Liquid | 308.4
294.13 K, Liquid | 308.4
294.32 K, Liquid | 308.7
295.68 K, Liquid | 309
296.03 K, Liquid | 309.2
296.1 K, Liquid | 309.2
297.5 K, Liquid | 309.8
297.89 K, Liquid | 309.8
297.93 K, Liquid | 309.8
298.15 K, Liquid | 309.9
299.84 K, Liquid | 310.6
300 K, Liquid | 310.5
301.74 K, Liquid | 311.1
303.65 K, Liquid | 311.9
305.55 K, Liquid | 312.4
307.45 K, Liquid | 313.2
309.36 K, Liquid | 313.8
310 K, Liquid | 314.1
311.26 K, Liquid | 314.6
313.17 K, Liquid | 315.1
315.07 K, Liquid | 315.9
316.98 K, Liquid | 316.7
318.89 K, Liquid | 317.2
320 K, Liquid | 317.6
320.79 K, Liquid | 318
322.7 K, Liquid | 318.6
324.6 K, Liquid | 319.4
326.51 K, Liquid | 320.1
328.41 K, Liquid | 320.7
330 K, Liquid | 321.3
330.32 K, Liquid | 321.5
332.22 K, Liquid | 322
334.13 K, Liquid | 322.8
336.03 K, Liquid | 323.6
337.93 K, Liquid | 324.4
339.84 K, Liquid | 324.9
340 K, Liquid | 325.1
341.74 K, Liquid | 325.7
343.65 K, Liquid | 326.5
345.55 K, Liquid | 327.3
347.47 K, Liquid | 327.9
349.37 K, Liquid | 328.7
350 K, Liquid | 328.9
351.28 K, Liquid | 329.5
353.19 K, Liquid | 330.3
355.09 K, Liquid | 330.8
357 K, Liquid | 331.6
358.91 K, Liquid | 332.4
360 K, Liquid | 332.9
360.81 K, Liquid | 333.2
362.72 K, Liquid | 334
364.62 K, Liquid | 334.8
366.52 K, Liquid | 335.3
368.43 K, Liquid | 336.4
370 K, Liquid | 336.9
